Assay results as given in patent US10336792B2, “Antimicrobial peptide dendrimers” (priority 2014, dated 2019).

Experiments:
[1] = system: Pseudomonas aeruginosa (strain PA01); assay: microbe, parasite or virus in culture; type: cell-based; conditions: LB medium, serial 2/3 dilution, 37 °C, 18-24 h
Procedure, shortened: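 Broth microdilution MIC against P. aeruginosa PAO1 in LB: peptides serially diluted by ⅔, bacteria added at OD600 0.001 and incubated 18–24 h at 37 °C. MTT added; MIC is the lowest concentration preventing visible growth.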

[2] = 5(6)-Carboxyfluorescein leakage from lipid vesicles; conditions: 10 mM TRIS, 107 mM NaCl, pH 7.4; peptide added at 50 s
Protocol: Preparation A thin lipid film was prepared by evaporating a solution of 25 mg Egg PC or Egg PG in 1 mL MeOH/CHCl3 1/1 on a rotary evaporator (rt) and then in vacuo overnight. The resulting film was hydrated with 1 mL buffer (50 mM CF, 10 mM TIRS, 10 mM NaCl, pH 7.4) for 30 min, subjected to freeze-thaw cycles (7×) and extrusion (15×) through a polycarbonate membrane (pore size 100 nm). Extravesicular components were removed by gel filtration (Sephadex G-50) with 10 mM TRIS, 107 mM NaCl, pH 7.4. Final conditions: ˜2.5 mM Egg PC or Egg PG; inside: 50 mM CF, 10 mM TIRS, 10 mM NaCl, pH 7.4; outside: 10 mM TRIS, 107 mM NaCl, pH 7.4.
Experiment Egg PC or Egg PG stock solutions (37.5 μL) were diluted with a buffer (10 mM TRIS, 107 mM NaCl, pH 7.4) and placed in a thermostated fluorescence cuvette (25° C.) and gently stirred (total volume in the cuvette ˜3000 μL; final lipid concentration ˜31.25 μM). CF efflux was monitored at λem 517 nm (λex 492 nm) as a function of time after addition of 20 μL of peptide dendrimer in buffer (10 mM TRIS, 107 mM NaCl, pH 7.4) with final concentrations of 1, 5, 7.5, 10, 15, 20, 25, 30 μg/mL at t=50 s and 1.2% trition X-100 (30 μL, 0.012% final concentration) at t=300 s. Fluorescence intensities were normalized to fractional emission intensity I(t) using I(t)=(It−I0)/(I∞−I0) where I0 It at peptide dendrimer addition, I∞=It at saturation of lysis.
Bacterial membranes contain relatively large amounts of exposed anionic lipids, while the outer leaflet of the membranes of plants and animals is composed mainly of lipids with no net charge. The charge composition of such membranes can be mimicked with phospholipid vesicles. Large unilamellar vesicles (LUVs) composed of the neutral phospholipid with PC (phosphatidyl choline) or with PG (phosphatidyl glycerol) with negative charges were prepared encapsulating 5(6)-carboxyfluorescein (CF). […] The higher the concentration of MSt-112 the higher is the CF leakage (FIG. 6A). […] Overall the active AMPDs interact with the negatively charged membrane and release the CF.

In the case of Polymyxin B [reference compound], the “MIC P. aeruginosa PAO1” value [1] is reported as 2 µg/mL and the “CF leakage from phosphatidylglycerol LUVs” value [2] is reported as “immediate leakage of CF”.
